Laboratory results reported in US20030187048A1, “Method for inhibiting skin lesion formation using histamine as the active ingredient” (priority 1991, published 2003).
“And” between values parts separate entries of the source, which are not always exact repeats. Equal values may be shown once. Read-outs that look alike come from different tables or passages of the source.

What was measured:
[1] = tested on: pressure sores (decubitus ulcers); conditions: for Percent Reduction in Area from original Size / Mean Percent Reduction/Week: per patient; for Mean Percent Reduction/Week: lesion area from original size
From the text: Treatment included standardized decubitus ulcer care for all pressure sores as determined by the protocol for the study.
Prospective subjects were considered for the study if their pressure sores (decubitus ulcers) were free from infection and either a Stage I or a Stage II lesion.
Patients were randomly assigned to one of four active ingredient levels being evaluated. […] Assignment of subjects to the four gel concentrations was unknown to the investigator.
The topical application of all gel concentrations to their respective, randomly assigned patients occurred once daily following careful rinsing of the pressure sore with sterile normal saline. After application of the appropriate gel concentration, each pressure sore was covered with a bio-occlusive dressing to minimize wound contamination.
Clinical evaluation included weekly classification of the stage of the pressure sores, the size and depth of the sores, the color, signs of infection (if present), odor (if present), and patient cooperation with treatment.

[2] = tested on: oral mucositis (stomatitis) secondary to chemotherapy; conditions: for Mean % Reduction In Symptom (discomfort with food/drink) / Mean Percent Reduction From Original Per Day / Mean % Reduction In Symptom: group mean
From the text: Prospective subjects were considered for the study if their mucositis (stomatitis) was diagnosed by their oncologist as secondary to their chemotherapy and if their oncologist recommended them as candidates for the study.
Patients were randomly assigned to one of three active ingredient levels being evaluated.
Following diagnosis and recommendation of oral mucositis patients by their oncologists, qualified participants were instructed to topically, intraorally apply one teaspoonful of their respective, randomly assigned gel by swishing and holding the gel in their mouth for 2 minutes and then expectorating the gel.
Evaluation of the extent of the oral mucous membrane involvement was based on each patient's estimate of this involvement (as a percentage) of the entire oral mucous membranes and each patient was contacted daily for this estimate as well as his or her estimate of the symptomatic relief of 5 common oral symptoms associated with mucositis (stomatitis) secondary to chemotherapy. In an attempt to quantify responses, patients were asked to rate each symptom each day an a scale of 0 to 5 with 0 representing no evidence of the symptom and 5 representing the worst or most vi prominent evidence of the symptom ever for the patient.
Patient compliance with the study regimen and the use of other medications or treatments was also evaluated.

NCCc1c[nH]cn1 [IEP, 1H-imidazole-4-ethanamine,phosphate]
Percent Reduction in Area from original Size ([1]; 0.0045% IEP gel, end of treatment week 1): 28.5% and 29.8% | Percent Reduction in Area from original Size ([1]; 0.0045% IEP gel, end of week 2): 33.6% and 66.6% | Percent Reduction in Area from original Size ([1]; 0.0045% IEP gel, end of week 3): 51.6% and 72.8% | Percent Reduction in Area from original Size ([1]; 0.0045% IEP gel, end of week 4): 71.7% and 84.9% | Percent Reduction in Area from original Size ([1]; 0.0045% IEP gel, end of week 5): 78.8% and 90.1% | Percent Reduction in Area from original Size ([1]; 0.0045% IEP gel, end of week 6): 87.0% and 95.6% | Percent Reduction in Area from original Size ([1]; 0.0045% IEP gel, end of week 7): 91.4% and 97.5% | Percent Reduction in Area from original Size ([1]; 0.0045% IEP gel, end of week 8): 92.3% and 99.4% | Percent Reduction in Area from original Size ([1]; 0.0045% IEP gel, end of week 9): 92.3% and 99.4% | Percent Reduction in Area from original Size ([1]; 0.0045% IEP gel, end of week 10): 99.4% | Mean Percent Reduction/Week ([1]; 0.0045% gel): 10.3% and 12.1% | Percent Reduction in Area from original Size ([1]; 0.0069% IEP gel, end of week 1): 48.6% and 55.6% | Percent Reduction in Area from original Size ([1]; 0.0069% IEP gel, end of week 2): 77.1% and 60.0% | Percent Reduction in Area from original Size ([1]; 0.0069% IEP gel, end of week 3): 77.1% and 78.2% | Percent Reduction in Area from original Size ([1]; 0.0069% IEP gel, end of week 4): 100% and 81.3% | Percent Reduction in Area from original Size ([1]; 0.0069% IEP gel, end of week 5): 84.4% | Percent Reduction in Area from original Size ([1]; 0.0069% IEP gel, end of week 6): 88.9% | Percent Reduction in Area from original Size ([1]; 0.0069% IEP gel, end of week 7): 100% | Mean Percent Reduction/Week ([1]; 0.0069% gel): 14.3% and 25.0% | Percent Reduction in Area from original Size ([1]; 0.009% IEP gel, end of week 1): 66.7% and 56.5% | Percent Reduction in Area from original Size ([1]; 0.009% IEP gel, end of week 2): 100.0% and 56.5% | Percent Reduction in Area from original Size ([1]; 0.009% IEP gel, end of week 3): 100.0% | Mean Percent Reduction/Week ([1]; 0.009% gel): 50.0% and 40.0% | Reducing the size of pressure sores vs placebo gel ([1]; 0.009% vs 0%, mean percent reduction in area per week, p<0.05): statistically significantly more effective | Untoward effects ([1]; in vivo): no untoward effects | Mean % Reduction In Symptom (discomfort with food/drink) ([2]; 0.0045% IEP gel): 55.6% | Mean Percent Reduction From Original Involvement Per Day ([2]; 0.0045% IEP gel, per patient): 33.3% and 18.0% and 25.0% | Percent of Mouth that Lesions Occupy ([2]; 0.0045% gel, Day 4, per patient): 0% and 25% and 1% | Percent of Mouth that Lesions Occupy ([2]; 0.0045% gel, Day 5, per patient): 0% | Percent of Mouth that Lesions Occupy ([2]; 0.0045% gel, Day 6, per patient): 0% (2×) and 5% | Percent of Mouth that Lesions Occupy ([2]; 0.0045% gel, Day 7, per patient): 0% | Mean Percent Reduction From Original Per Day ([2]; 0.0045% gel): 25.4% | Mean % Reduction In Symptom (discomfort with food/drink) ([2]; 0.0275% IEP gel): 52.8% | Mean Percent Reduction From Original Involvement Per Day ([2]; 0.0275% IEP gel, per patient): 50.0% and 33.3% (2×) | Percent of Mouth that Lesions Occupy ([2]; 0.0275% gel, Day 1 of treatment, per patient): 50% and 25% (2×) | Percent of Mouth that Lesions Occupy ([2]; 0.0275% gel, Day 2, per patient): 30% and 25% (2×) | Percent of Mouth that Lesions Occupy ([2]; 0.0275% gel, Day 3, per patient): 25% (2×) and 0% | Percent of Mouth that Lesions Occupy ([2]; 0.0275% gel, Day 4, per patient): 0% | Percent of Mouth that Lesions Occupy ([2]; 0.0275% gel, Day 5, per patient): 0% | Percent of Mouth that Lesions Occupy ([2]; 0.0275% gel, Day 6, per patient): 0% | Percent of Mouth that Lesions Occupy ([2]; 0.0275% gel, Day 7, per patient): 0% | Mean Percent Reduction From Original Per Day ([2]; 0.0275% gel): 38.9% | Difference in reduction of oral mucous membrane involvement vs placebo ([2]; 0.0275% vs placebo, p<.O1): highly statistically significant | Mean % Reduction In Symptom ([2]; Table 9.7, 0.0045% gel): 58.3% | Mean % Reduction In Symptom ([2]; Table 9.7, 0.0275% gel): 83.3% | Mean Percent Reduction Per Day in Discomfort with Food/Drink ([2]; Table 9.7, 0.0275% gel, per patient): 100.0% (2×) and 50.0% | Untoward effects ([2]; in vivo): no untoward effects
